Test results: patent US4464385A, “Treatment of diabetic complications with hydantoins” (Alcon Laboratories, Inc., priority 1982, dated 1984)

System: cataracts in rats
Experiment: Prevention or retardation of cataracts in galactose-fed rats
Assay type: in vivo, rat
Details: 0.0025% in diet
Procedure: The compounds to be tested were:
Test compound/diet mixtures were formulated as follows: […]
Similarly, the 0.01% level was designed to provide a drug concentration of 20 mg per kilogram per day.
All animals were fed the Purina Laboratory Chow and water, ad libitum for a two day acclimatization period. The indicated test compound/diet mixture then was introduced to all animals on Study Day 1 and the animals were maintained on this diet throughout thirty days of the study.
Sufficient amounts of test compound/diet mixture were maintained in the food hoppers to allow the animals to eat ad libitum. All aliquots of test compound/diet mixture added to the food hoopers were weighed and the weights, as well as day of addition, recorded.
Twelve animals were assigned to each treatment with each compound at the indicated percentage by total weight of feed. All eyes were examined with a handheld ophthalmoscope and/or penlight.

O=C1NC(=O)C2(CCOc3ccc(F)cc32)N1 (single isomer, unassigned) [SARGES**, dspiro (6fluoro-chroman-4,4imidazolidine)-2',5dione, reference compound]
time of suppression, time to vacuole formation: 20.8 days | suppression of the formation of nuclear cataracts (30 days): 100%
